In one data set the target is T1, human KDR enzyme (Homo sapiens, UniProt P35968).
T1 construct: The cytoplasmic domain of the human KDR enzyme; GST; made in house; host or cells: SF21 insect cells (baculovirus)
Put plainly: KDR substrate (PLCγ) phosphorylation, scintillation assay. It counts as biochemical. The conditions noted are these: 10 μM; read-out: KDR % inhib at 10 μM. A digest of the protocol: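 GST-fused human KDR cytoplasmic domain from SF21 cells (about 60% pure, 100 ng) phosphorylated 2 μg of GST-PLCγ SH2-SH3 fragment. The trigger solution held γ33P-ATP with 2 μM cold ATP, in MOPS buffer pH 7.2 with Mg2+, Mn2+, vanadate and NaF. Reactions ran 1 h at 37 °C, were stopped with EDTA and counted by scintillation; results are % inhibition versus the no-compound control.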

The test system of another data set is c-Src protein. Put plainly: Src kinase phosphorylation of biotinylated cdc2 substrate, fluorescence (DELFIA). The data set is classed as biochemical, human. How it is done:
The inhibition of the Src kinase is evaluated by measuring the phosphorylation of the biotinylated cdc2 substrate (Pierce) detected by fluorescence (DELFIA) using an antiphosphotyrosine antibody labeled with Europium, in 96-well Wallac plates. The c-Src protein used is a recombinant human protein produced in Baculovirus, comprising the SH3 and SH2 and the catalytic domains. The enzyme, the substrate and the various concentrations of test compounds are placed in the well in a 50 mM Tris buffer containing 10 mM MgCl2. The reaction is initiated by adding 10 μM of ATP. After incubation for 60 minutes at 30° C., the reaction is stopped by adding 75 mM EDTA. 50 μl are taken from each well and transferred into a plate coated with streptavidin. After incubation for 30 minutes at 25° C., the wells are washed with a washing buffer (Wallac) and then the antiphosphotyrosine antibody (PY20-Europium [Perkin Elmer]) is added in a volume of 75 μl. The plate is incubated for 30 minutes at 25° C. and then an “Enhancer” solution (Wallac) is added before reading the fluorescence using a fluorimeter (Perkin Elmer). The background noise is evaluated in triplicate in wells containing the substrate and the antibody in the absence of enzyme. The activity of the enzyme is measured (in triplicate) in the wells containing all the reagents in the absence of compound. The inhibition of the Src activity is expressed as percentage inhibition of the activity of the control determined in the absence of compound. The compound PP2 (Calbiochem) is included at various concentrations in each experiment as an inhibition control.

Structures are written as SMILES.

The results in this text go back to patent publication US6858638B2, “Substituted indazoles, compositions containing them, method of production and use” (Aventis Pharma S.A., priority 2002, dated 2005).

A word on the melting point: it is the temperature, or range, at which the solid turns liquid.

T1 sequence (P35968 786-1356 limits assumed): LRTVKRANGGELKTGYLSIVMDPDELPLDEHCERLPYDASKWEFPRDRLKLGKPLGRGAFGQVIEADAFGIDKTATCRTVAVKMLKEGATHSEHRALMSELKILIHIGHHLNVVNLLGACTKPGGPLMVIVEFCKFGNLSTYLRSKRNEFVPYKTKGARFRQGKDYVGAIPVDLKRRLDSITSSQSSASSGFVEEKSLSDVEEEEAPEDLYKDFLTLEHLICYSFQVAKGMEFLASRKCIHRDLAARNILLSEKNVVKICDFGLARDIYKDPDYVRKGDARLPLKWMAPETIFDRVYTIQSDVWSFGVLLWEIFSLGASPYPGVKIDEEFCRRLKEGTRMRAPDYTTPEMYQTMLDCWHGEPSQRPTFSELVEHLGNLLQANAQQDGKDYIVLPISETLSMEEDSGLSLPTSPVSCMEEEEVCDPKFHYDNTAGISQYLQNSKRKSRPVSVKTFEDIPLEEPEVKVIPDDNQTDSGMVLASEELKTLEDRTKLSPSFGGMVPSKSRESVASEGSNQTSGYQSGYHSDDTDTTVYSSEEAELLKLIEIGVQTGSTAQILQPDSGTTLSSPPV

With `CS(=O)(=O)c1ccccc1S(=O)(=O)Nc1ccc2[nH]nc(-c3cc4ccccc4[nH]3)c2c1` [Example 61, N-[3-(1H-Indol-2-yl)-1H-indazol-5-yl]-2-methylsulfonylbenzenesulfonamide], the inhibition at 10 µM at human KDR enzyme amounted to 98%. Besides, the “SRC % inhib at 10 μM” value with c-Src protein worked out at 99%.

Turning to `CN(C)c1ccc(-c2n[nH]c3ccc(NS(=O)(=O)c4ccccc4S(C)(=O)=O)cc23)cc1` [Example 63, N-[3-(4-Dimethylaminophenyl)-1H-indazol-5-yl]-2-methylsulfonylbenzenesulfonamide], the inhibition at 10 µM on human KDR enzyme worked out at 0%. Also, the “SRC % inhib at 10 μM” value in the data set on c-Src protein was found to be 46%.

Consider `CS(=O)(=O)c1ccccc1S(=O)(=O)Nc1ccc2[nH]nc(-c3nc4ccccc4[nH]3)c2c1` [Example 81, N-[3-(1H-Benzimidazol-2-yl)-1H-indazol-5-yl]-2-methylsulfonylbenzenesulfonamide], for which the inhibition at 10 µM on human KDR enzyme was determined as 93%. Moreover, the “SRC % inhib at 10 μM” value in the data set with c-Src protein is 100%.

Turning to `CC(=O)Nc1ccc(S(=O)(=O)Nc2ccc3[nH]nc(-c4ccccc4)c3c2)cc1` [Example 95, N-[4-(3-Phenyl-1H-indazol-5-ylsulfamoyl)phenyl]acetamide], the melting point is 167 °C. The inhibition at 10 µM at human KDR enzyme was 34%.

The compound `O=S(=O)(Nc1ccc2[nH]nc(-c3ccccc3)c2c1)C1CCNCC1` [Example 100, N-(3-Phenyl-1H-indazol-5-yl)-piperidine-4-sulfonamide] had a melting point of 230 °C. In addition, the inhibition at 10 µM at human KDR enzyme was determined as 74%.

With `O=S(=O)(Nc1ccc2[nH]nc(-c3ccccc3)c2c1)c1ccccc1C(F)(F)F` [Example 109, N-(3-Phenyl-1H-indazol-5-yl)-2-trifluoromethylbenzene-sulfonamide], the inhibition at 10 µM on human KDR enzyme turned out to be 91%. Besides, the “SRC % inhib at 10 μM” value with c-Src protein was 42%.

Regarding `O=S(=O)(Nc1ccc2[nH]nc(-c3ccccc3)c2c1)c1cccs1` [Example 110, N-(3-Phenyl-1H-indazol-5-yl)-thiophene-2-sulfonamide], the inhibition at 10 µM at human KDR enzyme stood at 91%. Moreover, the “SRC % inhib at 10 μM” value with c-Src protein was determined as 45%.

As to `O=S(=O)(Nc1ccc2[nH]nc(-c3ccccc3)c2c1)c1ccccc1` [Example 112, N-(3-Phenyl-1H-indazol-5-yl)benzenesulfonamide], the inhibition at 10 µM on human KDR enzyme was 93%. Also, the “SRC % inhib at 10 μM” value in the data set on c-Src protein amounted to 47%.

Regarding `O=[N+]([O-])c1ccccc1S(=O)(=O)Nc1ccc2[nH]nc(-c3ccccc3)c2c1` [Example 113, 2-Nitro-N-(3-phenyl-1H-indazol-5-yl)benzenesulfonamide], at human KDR enzyme, the inhibition at 10 µM was 88%. The “SRC % inhib at 10 μM” value in the data set on c-Src protein stood at 23%.

As to `O=S(=O)(Nc1ccc2[nH]nc(-c3ccccc3)c2c1)c1ccc(F)cc1` [Example 117, 4-Fluoro-N-(3-phenyl-1H-indazol-5-yl)-benzenesulfonamide], the inhibition at 10 µM on human KDR enzyme amounted to 93%. The “SRC % inhib at 10 μM” value in the data set on c-Src protein came out at 39%.

For the compound `COc1ccc(OC)c(S(=O)(=O)Nc2ccc3[nH]nc(-c4ccccc4)c3c2)c1` [Example 131, 2,5-Dimethoxy-N-(3-phenyl-1H-indazol-5-yl)-benzenesulfonamide], on human KDR enzyme, the inhibition at 10 µM stood at 95%. For the same compound, the “SRC % inhib at 10 μM” value with c-Src protein is given as 36%.

Regarding `Cc1ccccc1S(=O)(=O)Nc1ccc2[nH]nc(-c3ccccc3)c2c1` [Example 132, 2-Methyl-N-(3-phenyl-1H-indazol-5-yl)-benzenesulfonamide], at human KDR enzyme, the inhibition at 10 µM worked out at 96%. Also, the “SRC % inhib at 10 μM” value in the data set on c-Src protein was 18%.

Turning to `O=C(O)c1cccc(S(=O)(=O)Nc2ccc3[nH]nc(-c4ccccc4)c3c2)c1` [Example 133, 3-(3-Phenyl-1H-indazol-5-ylsulfamoyl)benzoic acid], the inhibition at 10 µM on human KDR enzyme was found to be 96%. The “SRC % inhib at 10 μM” value in the data set on c-Src protein came to 24%.

Take `O=S(=O)(Nc1ccc2[nH]nc(-c3ccccc3)c2c1)c1ccccc1F` [Example 134, 2-Fluoro-N-(3-phenyl-1H-indazol-5-yl)-benzenesulfonamide]: at human KDR enzyme, the inhibition at 10 µM stood at 90%. Also, the “SRC % inhib at 10 μM” value with c-Src protein came out at 44%.
